# According to patent publication US11370763B2, “Compounds and compositions for treating conditions associated with NLRP activity” (Novartis AG, priority 2017, dated 2022):
# Where two headings read alike, the source gives them in different places.
# System: IL-1β production in PMA-differentiated THP-1 cells
# Test: IL-1β production in PMA-differentiated THP-1 cells stimulated with gramicidin (hTHP-1 assay containing 2% fetal bovine serum; Procedures 1-3)
# Assay type: cell-based, human
# Details: Homo sapiens, THP-1, hTHP-1 assay containing 2% fetal bovine serum, read-out: hTHP-1 IC50 (Average IC50 of compounds in hTHP-1 assay)
# Procedure, shortened: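 THP-1 cells differentiated with PMA (20 ng/ml, 16-18 h), replated in 2% FBS RPMI (50,000 cells/well), preincubated 1 h with compound (top final 100 μM, 3-fold steps, 0.37% DMSO), then stimulated 2 h with gramicidin (5 μM). Supernatant IL-1β measured by HTRF.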
SMILES,IC50 (class symbols),IC50 (given as numeric bound)
CC(C)(O)c1ncc(S(N)(=O)=NC(=O)Cc2c(C3CC3)cc(F)cc2C(F)(F)F)s1 (stereo not drawn) [Example 98],5 to 30 µM,–
"CC(C)c1nc(-c2cccc(C(F)(F)F)c2)c(F)c(C(C)C)c1CC(=O)N=S(=O)(NC(=O)OC(C)(C)C)c1cnc(C(C)(C)O)s1 (stereo not drawn) [Example 99, tert-butyl (N-(2-(5-fluoro-2,4-diisopropyl-6-(3-(trifluoromethyl)phenyl)pyridin-3-yl)acetyl)-2-(2-hydroxypropan-2-yl)thiazole-5-sulfonimidoyl)carbamate]",1 to 5 µM,–
CC(C)c1nc(-c2cccc(C(F)(F)F)c2)c(F)c(C(C)C)c1CC(=O)N=S(N)(=O)c1cnc(C(C)(C)O)s1 (stereo not drawn) [Example 100],0.2 to 1 µM,–
"CC(C)c1cc(F)cc(C2CCOC2)c1CC(=O)N=S(N)(=O)c1cnc(C(C)(C)O)s1 (stereo not drawn) [Example 102, N-(amino(2-(2-hydroxypropan-2-yl)thiazol-5-yl)(oxo)-λ^6-sulfaneylidene)-2-(4-fluoro-2-isopropyl-6-(tetrahydrofuran-3-yl)phenyl)acetamide]",5 to 30 µM,–
"CC(C)c1ccc(F)c(C(C)C)c1CC(=O)N=S(N)(=O)c1cnc(C(C)(C)O)s1 (stereo not drawn) [Example 103, N-(amino(2-(2-hydroxypropan-2-yl)thiazol-5-yl)(oxo)-λ^6-sulfaneylidene)-2-(3-fluoro-2,6-diisopropylphenyl)acetamide]",0.2 to 1 µM,–
"CC(C)c1c(F)c(Cl)cc(C2CC2)c1CC(=O)N=S(N)(=O)c1cnc(C(C)(C)O)s1 (stereo not drawn) [Example 104, N-(amino(2-(2-hydroxypropan-2-yl)thiazol-5-yl)(oxo)-λ^6-sulfaneylidene)-2-(4-chloro-6-cyclopropyl-3-fluoro-2-isopropylphenyl)acetamide]",0.2 to 1 µM,–
"CC(C)c1cc(-n2cccn2)cc(C(C)C)c1CC(=O)N=S(N)(=O)c1cnc(C(C)(C)O)s1 (stereo not drawn) [Example 107, N-(amino(2-(2-hydroxypropan-2-yl)thiazol-5-yl)(oxo)-λ^6-sulfaneylidene)-2-(2,6-diisopropyl-4-(1H-pyrazol-1-yl)phenyl)acetamide]",5 to 30 µM,–
"COCc1cc(C(C)C)c(CC(=O)N=S(N)(=O)c2cnc(C(C)(C)O)s2)c(C(C)C)c1F (stereo not drawn) [Example 109, N-(amino(2-(2-hydroxypropan-2-yl)thiazol-5-yl)(oxo)-λ^6-sulfaneylidene)-2-(3-fluoro-2,6-diisopropyl-4-(methoxymethyl)phenyl) acetamide]",0.04 to 0.2 µM,–
"CC(C)c1cc(-c2ccc(Cl)c(Cl)c2)cc(C(C)C)c1CC(=O)N=S(N)(=O)c1cnc(C(C)(C)O)s1 (stereo not drawn) [Example 112, N-(amino(2-(2-hydroxypropan-2-yl)thiazol-5-yl)(oxo)-λ^6-sulfaneylidene)-2-(3′,4′-dichloro-3,5-diisopropyl-[1,1′-biphenyl]-4-yl)acetamide]",0.2 to 1 µM,–
"CC(C)c1ccc(C#N)c(C(C)C)c1CC(=O)N=S(N)(=O)c1cnc(C(C)(C)O)s1 (stereo not drawn) [Example 114, N-(amino(2-(2-hydroxypropan-2-yl)thiazol-5-yl)(oxo)-λ^6-sulfaneylidene)-2-(3-cyano-2,6-diisopropylphenyl)acetamide]",1 to 5 µM,–
"CC(C)c1c(F)c(C#N)cc(C2CC2)c1CC(=O)N=S(N)(=O)c1sc(C(C)(C)O)nc1CO (stereo not drawn) [Example 115, N-(amino(4-(hydroxymethyl)-2-(2-hydroxypropan-2-yl)thiazol-5-yl)(oxo)-λ^6-sulfaneylidene)-2-(4-cyano-6-cyclopropyl-3-fluoro-2-isopropylphenyl)acetamide]",0.2 to 1 µM,–
"CC(C)c1cc(-c2ccc3c(c2)OC(F)(F)O3)cc(C(C)C)c1CC(=O)N=S(N)(=O)c1ncc(C(C)(C)O)s1 (stereo not drawn) [Example 117, N-(amino(5-(2-hydroxypropan-2-yl)thiazol-2-yl)(oxo)-λ^6-sulfaneylidene)-2-(4-(2,2-difluorobenzo[d][1,3]dioxol-5-yl)-2,6-diisopropylphenyl)acetamide]",0.04 to 0.2 µM,–
"CC(C)c1ccc(C#N)c(C(C)C)c1CC(=O)N=S(N)(=O)c1nc(C(C)(C)O)cs1 (stereo not drawn) [Example 120, N-(amino(4-(2-hydroxypropan-2-yl)thiazol-2-yl)(oxo)-λ^6-sulfaneylidene)-2-(3-cyano-2,6-diisopropylphenyl)acetamide]",0.2 to 1 µM,–
"CC(C)c1cc(-c2ccc(Cl)c(Cl)c2)cc(C(C)C)c1CC(=O)N=S(N)(=O)c1ncc(C(C)(C)O)s1 (stereo not drawn) [Example 122, N-(amino(5-(2-hydroxypropan-2-yl)thiazol-2-yl)(oxo)-λ^6-sulfaneylidene)-2-(3′,4′-dichloro-3,5-diisopropyl-[1,1′-biphenyl]-4-yl)acetamide]",0.2 to 1 µM,–
"CC(C)c1cc(C#N)c(F)c(C(C)C)c1CC(=O)N=S(N)(=O)c1cnc(C(C)(C)O)s1 (stereo not drawn) [Example 123, N-(amino(2-(2-hydroxypropan-2-yl)thiazol-5-yl)(oxo)-λ^6-sulfaneylidene)-2-(4-cyano-3-fluoro-2,6-diisopropylphenyl)acetamide]",0.2 to 1 µM,–

# Continued, values first:
IC50 (class symbols),IC50 (given as numeric bound),SMILES
1 to 5 µM,–,"CC(C)c1cc(C2(F)COC2)cc(C(C)C)c1CC(=O)N=S(N)(=O)c1ncc(C(C)(C)O)s1 (stereo not drawn) [Example 94, N-(amino(5-(2-hydroxypropan-2-yl)thiazol-2-yl)(oxo)-λ^6-sulfaneylidene)-2-(4-(3-fluorooxetan-3-yl)-2,6-diisopropylphenyl)acetamide]"
0.2 to 1 µM,–,"CCCc1cc(F)cc(CCC)c1CC(=O)N=S(N)(=O)c1cnc(C(C)(C)O)s1 (stereo not drawn) [Example 95, N-(amino(2-(2-hydroxypropan-2-yl)thiazol-5-yl)(oxo)-λ^6-sulfaneylidene)-2-(4-fluoro-2,6-dipropylphenyl)acetamide]"
–,> 30 µM,"CC(C)c1cc(F)cc(C(C)C)c1C(C)C(=O)N=S(N)(=O)c1cnc(C(C)(C)O)s1 (stereo not drawn) [Example 96, N-(amino(2-(2-hydroxypropan-2-yl)thiazol-5-yl)(oxo)-λ^6-sulfaneylidene)-2-(4-fluoro-2,6-diisopropylphenyl)propanamide]"
0.2 to 1 µM,–,"CC(C)c1cc(-c2ccc3c(c2)COCC3)cc(C(C)C)c1CC(=O)N=S(N)(=O)c1cnc(C(C)(C)O)s1 (stereo not drawn) [Example 97, N-(amino(2-(2-hydroxypropan-2-yl)thiazol-5-yl)(oxo)-λ^6-sulfaneylidene)-2-(4-(isochroman-7-yl)-2,6-diisopropylphenyl)acetamide]"
5 to 30 µM,–,"CC(C)c1ncc(F)c(C(C)C)c1CC(=O)N=S(N)(=O)c1ccc(CN(C)C)cc1 (stereo not drawn) [Example 101, N-(amino(4-((dimethylamino)methyl)phenyl)(oxo)-λ^6-sulfaneylidene)-2-(5-fluoro-2,4-diisopropylpyridin-3-yl)acetamide]"
0.04 to 0.2 µM,–,"COCc1cc(C(C)C)c(CC(=O)N=S(N)(=O)c2cc(C(C)(C)O)cs2)c(C(C)C)c1 (stereo not drawn) [Example 105, N-(amino(4-(2-hydroxypropan-2-yl)thiophen-2-yl)(oxo)-λ^6-sulfaneylidene)-2-(2,6-diisopropyl-4-(methoxymethyl)phenyl) acetamide]"
0.04 to 0.2 µM,–,"CC(C)c1ccc(F)c(C(C)C)c1CC(=O)N=S(N)(=O)c1cc(C(C)(C)O)cs1 (stereo not drawn) [Example 106, N-(amino(4-(2-hydroxypropan-2-yl)thiophen-2-yl)(oxo)-λ^6-sulfaneylidene)-2-(3-fluoro-2,6-diisopropylphenyl)acetamide]"
0.04 to 0.2 µM,–,"COCc1cc(C(C)C)c(CC(=O)N=S(N)(=O)c2cnc(C(C)(C)O)s2)c(C(C)C)c1 (stereo not drawn) [Example 108, N-(amino(2-(2-hydroxypropan-2-yl)thiazol-5-yl)(oxo)-λ^6-sulfaneylidene)-2-(2,6-diisopropyl-4-(methoxymethyl)phenyl) acetamide]"
0.2 to 1 µM,–,"CC(C)c1cc(-c2ccc3ccccc3c2)cc(C(C)C)c1CC(=O)N=S(N)(=O)c1ncc(C(C)(C)O)s1 (stereo not drawn) [Example 110, N-(amino(5-(2-hydroxypropan-2-yl)thiazol-2-yl)(oxo)-λ^6-sulfaneylidene)-2-(2,6-diisopropyl-4-(naphthalen-2-yl)phenyl)acetamide]"
0.04 to 0.2 µM,–,"COCc1cc(C(C)C)c(CC(=O)N=S(N)(=O)c2ncc(C(C)(C)O)s2)c(C(C)C)c1 (stereo not drawn) [Example 111, N-(amino(5-(2-hydroxypropan-2-yl)thiazol-2-yl)(oxo)-λ^6-sulfaneylidene)-2-(2,6-diisopropyl-4-(methoxymethyl)phenyl) acetamide]"
0.008 to 0.04 µM,–,"CC(C)c1cc(-c2ccc3ccccc3c2)cc(C(C)C)c1CC(=O)N=S(N)(=O)c1cnc(C(C)(C)O)s1 (stereo not drawn) [Example 113, N-(amino(2-(2-hydroxypropan-2-yl)thiazol-5-yl)(oxo)-λ^6-sulfaneylidene)-2-(2,6-diisopropyl-4-(naphthalen-2-yl)phenyl)acetamide]"
5 to 30 µM,–,"COc1ccc2cc(-c3cc(C(C)C)c(CC(=O)N=S(N)(=O)c4cnc(C(C)(C)O)s4)c(C(C)C)c3)ccc2c1 (stereo not drawn) [Example 116, N-(amino(2-(2-hydroxypropan-2-yl)thiazol-5-yl)(oxo)-λ^6-sulfaneylidene)-2-(2,6-diisopropyl-4-(6-methoxynaphthalen-2-yl)phenyl)acetamide]"
0.2 to 1 µM,–,"CC(C)c1cc(-c2ccc3c(c2)OC(F)(F)O3)cc(C(C)C)c1CC(=O)N=S(N)(=O)c1cnc(C(C)(C)O)s1 (stereo not drawn) [Example 118, N-(amino(2-(2-hydroxypropan-2-yl)thiazol-5-yl)(oxo)-λ^6-sulfaneylidene)-2-(4-(2,2-difluorobenzo[d][1,3]dioxol-5-yl)-2,6-diisopropylphenyl)acetamide]"
0.2 to 1 µM,–,"CC(C)c1ccc(F)c(C(C)C)c1CC(=O)N=S(N)(=O)c1nc(C(C)(C)O)cs1 (stereo not drawn) [Example 119, N-(amino(4-(2-hydroxypropan-2-yl)thiazol-2-yl)(oxo)-λ^6-sulfaneylidene)-2-(3-fluoro-2,6-diisopropylphenyl)acetamide]"
0.2 to 1 µM,–,"Cc1ccc(-c2cc(C(C)C)c(CC(=O)N=S(N)(=O)c3ncc(C(C)(C)O)s3)c(C(C)C)c2)cc1C (stereo not drawn) [Example 121, N-(amino(5-(2-hydroxypropan-2-yl)thiazol-2-yl)(oxo)-λ^6-sulfaneylidene)-2-(3,5-diisopropyl-3′,4′-dimethyl-[1,1′-biphenyl]-4-yl)acetamide]"
